Measured values: patent publication US20090012103A1, “SUBSTITUTED HETEROCYCLIC COMPOUNDS” (priority 2007, published 2009)

The molecules below were run against wild-type human cardiac sodium channel, hNav1.5 (Homo sapiens, UniProt Q14524) (assay: Late INa screening assay (late sodium current, PatchXpress whole cell patch clamp)). Settings: compound at 10 μM; read-out: Late INa % blk.
Sequence of wild-type human cardiac sodium channel, hNav1.5 (Q14524 whole entry): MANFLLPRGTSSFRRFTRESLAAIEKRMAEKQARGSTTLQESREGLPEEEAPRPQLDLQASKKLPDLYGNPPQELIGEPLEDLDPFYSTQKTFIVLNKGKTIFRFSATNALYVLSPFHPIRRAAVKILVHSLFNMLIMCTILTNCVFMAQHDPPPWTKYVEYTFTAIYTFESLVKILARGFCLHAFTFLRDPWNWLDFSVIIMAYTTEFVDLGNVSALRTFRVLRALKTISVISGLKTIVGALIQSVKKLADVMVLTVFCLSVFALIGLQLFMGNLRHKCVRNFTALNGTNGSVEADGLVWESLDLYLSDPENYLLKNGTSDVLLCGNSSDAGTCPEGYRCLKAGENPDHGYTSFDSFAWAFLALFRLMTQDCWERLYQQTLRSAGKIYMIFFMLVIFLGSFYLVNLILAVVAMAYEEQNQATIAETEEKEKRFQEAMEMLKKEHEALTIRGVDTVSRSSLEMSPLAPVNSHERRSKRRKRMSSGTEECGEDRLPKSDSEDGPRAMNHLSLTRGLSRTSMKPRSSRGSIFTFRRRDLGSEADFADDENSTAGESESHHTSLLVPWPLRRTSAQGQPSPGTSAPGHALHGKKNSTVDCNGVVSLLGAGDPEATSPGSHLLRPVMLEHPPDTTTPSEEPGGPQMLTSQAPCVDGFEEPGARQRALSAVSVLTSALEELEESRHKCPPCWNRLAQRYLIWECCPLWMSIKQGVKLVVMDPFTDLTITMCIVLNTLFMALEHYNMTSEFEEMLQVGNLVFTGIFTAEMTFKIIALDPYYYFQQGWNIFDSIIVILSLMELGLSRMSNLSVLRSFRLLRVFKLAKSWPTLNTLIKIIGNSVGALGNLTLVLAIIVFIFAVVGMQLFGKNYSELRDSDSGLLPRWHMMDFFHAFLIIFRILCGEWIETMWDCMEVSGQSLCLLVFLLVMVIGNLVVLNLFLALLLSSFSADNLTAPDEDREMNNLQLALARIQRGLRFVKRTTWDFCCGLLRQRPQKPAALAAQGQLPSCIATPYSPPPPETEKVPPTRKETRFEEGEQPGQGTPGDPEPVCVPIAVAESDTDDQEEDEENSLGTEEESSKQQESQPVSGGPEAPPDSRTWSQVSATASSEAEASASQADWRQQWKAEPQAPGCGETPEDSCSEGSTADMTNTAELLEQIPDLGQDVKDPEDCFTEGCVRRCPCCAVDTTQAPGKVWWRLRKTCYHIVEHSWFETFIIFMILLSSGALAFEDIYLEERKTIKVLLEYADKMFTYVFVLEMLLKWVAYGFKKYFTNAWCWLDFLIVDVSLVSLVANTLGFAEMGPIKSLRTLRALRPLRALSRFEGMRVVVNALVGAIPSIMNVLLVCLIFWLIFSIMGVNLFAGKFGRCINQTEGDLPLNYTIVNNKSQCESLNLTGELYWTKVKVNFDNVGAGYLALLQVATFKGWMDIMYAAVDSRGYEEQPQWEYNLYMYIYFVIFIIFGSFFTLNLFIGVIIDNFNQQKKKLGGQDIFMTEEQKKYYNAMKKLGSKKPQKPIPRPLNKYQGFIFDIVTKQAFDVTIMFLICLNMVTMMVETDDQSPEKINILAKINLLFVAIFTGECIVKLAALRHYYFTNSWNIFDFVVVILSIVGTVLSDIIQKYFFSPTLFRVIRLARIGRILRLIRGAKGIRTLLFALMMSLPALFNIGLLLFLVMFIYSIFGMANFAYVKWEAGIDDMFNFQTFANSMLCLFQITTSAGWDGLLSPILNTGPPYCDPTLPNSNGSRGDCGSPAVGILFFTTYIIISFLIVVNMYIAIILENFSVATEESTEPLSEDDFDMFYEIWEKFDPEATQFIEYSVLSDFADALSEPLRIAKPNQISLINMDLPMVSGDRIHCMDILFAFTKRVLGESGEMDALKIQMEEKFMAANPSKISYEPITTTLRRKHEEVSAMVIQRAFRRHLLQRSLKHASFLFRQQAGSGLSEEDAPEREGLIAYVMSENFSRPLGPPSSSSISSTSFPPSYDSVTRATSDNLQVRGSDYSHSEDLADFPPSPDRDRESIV
Format: cell-based
Method: The late sodium current (Late INa) and peak sodium current (Peak INa) assays are performed on an automated electrophysiology platform, PatchXpress 7000A (MDS Analytical Technologies, Sunnyvale, Calif.), which uses the whole cell patch clamp technique to measure currents through the cell membrane of up to 16 cells at a time. The assay uses an HEK293 (human embryonic kidney) cell line heterologously expressing the wild-type human cardiac sodium channel, hNav1.5, purchased from Millipore (Billerica, Mass.). No beta subunits were coexpressed with the Na channel alpha subunit. […] Experiments are carried out at 24-27° C.
For both the Late INa and Peak INa assays, series resistance compensation is set to 50% and whole-cell compensation is performed automatically. […] Currents through open sodium channels are automatically recorded and stored in the DataXpress2 database (MDS Analytical Technologies, Sunnyvale, Calif.). Analysis is performed using DataXpress2 analysis software and data are compiled in Excel.
Compound stocks are routinely made in glass vials to 10 mM in dimethyl sulfoxide (DMSO). In some cases, when compounds are not soluble in DMSO, they are made in 100% ethanol. Stocks are sonicated as necessary. The extracellular solution for screening Late INa is composed of: 140 mM NaCl, 4 mM KCl, 1.8 mM CaCl2, 0.75 mM MgCl2, and 5 mM HEPES with pH adjusted to 7.4 using NaOH. The extracellular solution for screening Peak INa is composed of: 20 mM NaCl, 120 mM N-methyl-D glucamine, 4 mM KCl, 1.8 mM CaCl2, 0.75 mM MgCl2, and 5 mM HEPES with pH adjusted to 7.4 using HCl. The intracellular solution used to perfuse the inside of the cells for both the Late INa and Peak INa assays contains: 120 mM CsF, 20 mM CsCl, 5 mM EGTA, 5 mM HEPES and pH adjusted to 7.4 with CsOH. Compounds are diluted in extracellular solution to 10 μM in glass vials and then transferred to glass well plates before robotic addition to the cells. The 0 Na extracellular solution used at the end of each experiment for the Late INa and Peak INa assays to measure baseline current contains: 140 mM N-methyl-D-glucamine; 4 mM KCl; 1.8 mM CaCl2; 0.75 mM MgCl2; 5 mM HEPES and pH was adjusted to 7.4 with HCl.
For the Late INa assay, sodium channels are activated every 10 seconds (0.1 Hz) by depolarizing the cell membrane to −20 mV for 250 milliseconds (ms) from a holding potential of −120 mV.
All compounds are tested to determine their activity in blocking the late sodium current. Late INa current is generated by adding 10 μM Tefluthrin (pyrethroid) to the extracellular solution while recording Na currents. […] For some experiments, 50 nM ATX II (sea anemone toxin), another late INa activator, was used to generate the late component. […] Baseline current in the absence of Na^+ ions is measured at the end of each experiment (after two additions of 0 Na solution-see above) and is used to calculate the percent block by compound.
For `CCOC(=O)C1=C(C)Nc2nnnn2C1c1ccccc1-c1cncnc1` (stereo not drawn) [PT-461, ethyl 5-methyl-7-(2-(pyrimidin-5-yl)phenyl)-4,7-dihydrotetrazolo[1,5-a]pyrimidine-6-carboxylate], the inhibition at 10 µM was 6.2%. `CC1=C(C(=O)N2CCN(c3ccc(Cl)cc3)CC2)C(c2ccsc2)C2=C(CCCC2=O)N1` (stereo not drawn) [PT-167, 3-(4-(4-chlorophenyl)piperazine-1-carbonyl)-2-methyl-4-(thiophen-3-yl)-4,6,7,8-tetrahydroquinolin-5(1H)-one] showed an inhibition at 10 µM of -10%. `CC1=C(C(=O)OCc2ccccc2)C(c2ccc(C#N)cc2)n2nnnc2N1` (stereo not drawn) [PT-418, benzyl 7-(4-cyanophenyl)-5-methyl-4,7-dihydrotetrazolo[1,5-a]pyrimidine-6-carboxylate] gave an inhibition at 10 µM of 42.7%. In the case of `CC1=C(C(=O)OC(C)(C)C)C(c2ccc3ccccc3c2)n2nnnc2N1` (stereo not drawn) [PT-022, tert-butyl 5-methyl-7-(naphthalen-2-yl)-4,7-dihydrotetrazolo[1,5-a]pyrimidine-6-carboxylate], the inhibition at 10 µM is reported as 26%. With `CCOC(=O)C1=C(C)Nc2nnnn2C1c1cccc(OCc2ccc(C(=O)O)cc2)c1` (stereo not drawn) [PT-286, 4-((3-(6-(ethoxycarbonyl)-5-methyl-4,7-dihydrotetrazolo[1,5-a]pyrimidin-7-yl)phenoxy)methyl)benzoic acid] the inhibition at 10 µM was 8.8%. `CC1=C(C(=O)OCc2ccccc2)C(c2ccsc2B(O)O)n2nnnc2N1` (stereo not drawn) [PT-277, 3-(6-(benzyloxycarbonyl)-5-methyl-4,7-dihydrotetrazolo[1,5-a]pyrimidin-7-yl)thiophen-2-ylboronic acid] was tested, and the inhibition at 10 µM was 18%. Work on `CC1=C(C(=O)OCc2cccc(-c3ccccc3)c2)C(c2cccc3ccccc23)n2nnnc2N1` (stereo not drawn) [PT-006, biphenyl-3-ylmethyl 5-methyl-7-(naphthalen-1-yl)-4,7-dihydrotetrazolo[1,5-a]pyrimidine-6-carboxylate] yielded an inhibition at 10 µM of 5.4%. `CC1(C)CC(=O)C2=C(C1)OC(N)=C(C#N)C2c1cccc(C(=O)O)c1` (stereo not drawn) [PT-098, 3-(2-amino-3-cyano-7,7-dimethyl-5-oxo-5,6,7,8-tetrahydro-4H-chromen-4-yl)benzoic acid] showed an inhibition at 10 µM of -27.9%. `CCOC(=O)c1ccc(N2CCN(C(=O)C3=C(C)NC4=C(C(=O)CCC4)C3c3cccc4ccccc34)CC2)cc1` (stereo not drawn) [PT-452, ethyl 4-(4-(2-methyl-4-(naphthalen-1-yl)-5-oxo-1,4,5,6,7,8-hexahydroquinoline-3-carbonyl)piperazin-1-yl)benzoate] showed an inhibition at 10 µM of 5.9%. With `CC1=C(C(=O)OCc2ccccc2)C(c2ccc(OCCN(C)C)cc2)n2nnnc2N1` (stereo not drawn) [PT-405, benzyl 7-(4-(2-(dimethylamino)ethoxy)phenyl)-5-methyl-4,7-dihydrotetrazolo[1,5-a]pyrimidine-6-carboxylate] the inhibition at 10 µM was 18.4%. With `CC1=C(C(=O)OCc2ccccc2)C(c2ccc3ccccc3n2)n2nnnc2N1` (stereo not drawn) [PT-196, benzyl 5-methyl-7-(quinolin-2-yl)-4,7-dihydrotetrazolo[1,5-a]pyrimidine-6-carboxylate] the inhibition at 10 µM was 32.5%. Molecule `CCn1c2ccccc2c2cc(C3C(C(=O)OCc4ccccc4)=C(C)Nc4nnnn43)ccc21` (stereo not drawn) [PT-422, benzyl 7-(9-ethyl-9H-carbazol-3-yl)-5-methyl-4,7-dihydrotetrazolo[1,5-a]pyrimidine-6-carboxylate] has an inhibition at 10 µM of 35.2%. For `CC1=C(C(=O)OCc2ccccc2)C(c2ccc(S(C)(=O)=O)cc2)n2nnnc2N1` (stereo not drawn) [PT-355, benzyl 5-methyl-7-(4-(methylsulfonyl)phenyl)-4,7-dihydrotetrazolo[1,5-a]pyrimidine-6-carboxylate], the inhibition at 10 µM was 14.8%. `CC1=C(C(=O)OCc2ccccc2)C(c2ccc(N(C)C)c3ccccc23)n2ncc(C(=O)O)c2N1` (stereo not drawn) [PT-311, 6-(benzyloxycarbonyl)-7-(4-(dimethylamino)naphthalen-1-yl)-5-methyl-4,7-dihydropyrazolo[1,5-a]pyrimidine-3-carboxylic acid] was tested, and the inhibition at 10 µM was -7.5%. Molecule `CCOC(=O)C1=C(C)Nc2[nH]ncc2C1c1cccs1` (stereo not drawn) [PT-473, ethyl 6-methyl-4-(thiophen-2-yl)-4,7-dihydro-1H-pyrazolo[3,4-b]pyridine-5-carboxylate] has an inhibition at 10 µM of 9.4%. `CC1=C(C(=O)OCC2CC2)C(c2c(-c3ccc(C(=O)O)cc3)sc3ccccc23)n2nnnc2N1` (stereo not drawn) [PT-293, 4-(3-(6-((cyclopropylmethoxy)carbonyl)-5-methyl-4,7-dihydrotetrazolo[1,5-a]pyrimidin-7-yl)benzo[b]thiophen-2-yl)benzoic acid] showed an inhibition at 10 µM of 7.7%. `CCOC(=O)C1=C(C)Nc2nnnn2C1c1ccccc1Oc1ccc(S(N)(=O)=O)cc1` (stereo not drawn) [PT-458, ethyl 5-methyl-7-(2-(4-sulfamoylphenoxy)phenyl)-4,7-dihydrotetrazolo[1,5-a]pyrimidine-6-carboxylate] showed an inhibition at 10 µM of 19%. With `O=C1OCC2=C1C(c1cccc3ccccc13)c1cn[nH]c1N2` (stereo not drawn) [PT-084, 4-(naphthalen-1-yl)-7,8-dihydro-1H-furo[3,4-e]pyrazolo[3,4-b]pyridin-5(4H)-one] the inhibition at 10 µM was 16.9%. In the case of `COc1ccc2ccccc2c1C1C(C(=O)O[C@@H](C)c2ccccc2)=C(C)Nc2nnnn21` (stereo partly drawn) [PT-053, (S)-1-phenylethyl 7-(2-methoxynaphthalen-1-yl)-5-methyl-4,7-dihydrotetrazolo[1,5-a]pyrimidine-6-carboxylate], the inhibition at 10 µM is reported as 53.6%. `CC1=C(C(=O)OC2Cc3ccccc3C2)C(c2cccc3ccccc23)n2nnnc2N1` (stereo not drawn) [PT-260, 2,3-dihydro-1H-inden-2-yl 5-methyl-7-(naphthalen-1-yl)-4,7-dihydrotetrazolo[1,5-a]pyrimidine-6-carboxylate] gave an inhibition at 10 µM of 74.8%. `COc1ccc(C2C(C(=O)OCc3ccccc3)=C(C)Nc3nnnn32)c(OC)c1` (stereo not drawn) [PT-385, benzyl 7-(2,4-dimethoxyphenyl)-5-methyl-4,7-dihydrotetrazolo[1,5-a]pyrimidine-6-carboxylate] gave an inhibition at 10 µM of 56.5%. In the case of `CC1=C(C(=O)NCc2ccccc2)C(c2cccc3ccccc23)n2nnnc2N1` (stereo not drawn) [PT-067, N-benzyl-5-methyl-7-(naphthalen-1-yl)-4,7-dihydrotetrazolo[1,5-a]pyrimidine-6-carboxamide], the inhibition at 10 µM is reported as 24.4%. Molecule `CC1=C(C(=O)NNC(=O)Cc2ccccc2)C(c2cccc3ccccc23)n2nnnc2N1` (stereo not drawn) [PT-309, 5-methyl-7-(naphthalen-1-yl)-N′-(2-phenylacetyl)-4,7-dihydrotetrazolo[1,5-a]pyrimidine-6-carbohydrazide] has an inhibition at 10 µM of 8.2%. `CCOC(=O)C1=C(C)Nc2nnnn2C1c1ccccc1Oc1cccc(C(=O)OCC)c1` (stereo not drawn) [PT-479, ethyl 7-(2-(3-(ethoxycarbonyl)phenoxy)phenyl)-5-methyl-4,7-dihydrotetrazolo[1,5-a]pyrimidine-6-carboxylate] was tested, and the inhibition at 10 µM was 35.7%. With `CCOC(=O)C1=C(C)Nc2nnnn2C1c1ccccc1OCc1ccc(C(=O)O)cc1` (stereo not drawn) [PT-285, 4-((2-(6-(ethoxycarbonyl)-5-methyl-4,7-dihydrotetrazolo[1,5-a]pyrimidin-7-yl)phenoxy)methyl)benzoic acid] the inhibition at 10 µM was -2.2%. `COC(=O)C1=C(C)Nc2nnnn2C1c1ccccc1I` (stereo not drawn) [PT-519, methyl 7-(2-iodophenyl)-5-methyl-4,7-dihydrotetrazolo[1,5-a]pyrimidine-6-carboxylate] showed an inhibition at 10 µM of 27.3%. `COc1ccc(C2C(C(=O)OCc3ccccc3)=C(C)Nc3[nH]ncc32)c2ccccc12` (stereo not drawn) [PT-333, benzyl 4-(4-methoxynaphthalen-1-yl)-6-methyl-4,7-dihydro-1H-pyrazolo[3,4-b]pyridine-5-carboxylate] was tested, and the inhibition at 10 µM was 13.1%. Work on `CCOC(=O)c1c(C)nc2[nH]ncc2c1-c1ccccc1` [PT-474, ethyl 6-methyl-4-phenyl-1H-pyrazolo[3,4-b]pyridine-5-carboxylate] yielded an inhibition at 10 µM of 22%. With `CCOC(=O)C1=C(C)Nc2nnnn2C1c1ccccc1N1CCC(C(=O)OCC)CC1` (stereo not drawn) [PT-484, ethyl 7-(2-(4-(ethoxycarbonyl)piperidin-1-yl)phenyl)-5-methyl-4,7-dihydrotetrazolo[1,5-a]pyrimidine-6-carboxylate] the inhibition at 10 µM was 36.1%.

Same assay, conditions: read-out: Late INa % blk
`CC1=C(C(=O)OC2CCCc3ccccc32)C(c2cccc3ccccc23)n2nnnc2N1` (stereo not drawn) [PT-001, 1,2,3,4-tetrahydronaphthalen-1-yl 5-methyl-7-(naphthalen-1-yl)-4,7-dihydrotetrazolo[1,5-a]pyrimidine-6-carboxylate] gave an inhibition at 10 µM of 28.8%.
